According to patent US20070116785A1, “Nitric oxide as an anti-viral agent, vaccine and vaccine adjuvant” (priority 2005, published 2007):
“Also recorded” adds a separate entry of the source.

Tests used:
[1] = tested on: Bovine Respiratory Disease (BRD)
[2] = tested on: Highly Pathogenic Avian Influenza (HPAI) H7N3; type: cell-based
influenza A virus = test: Plaque assay in MDCK cells with virus exposed to nitric oxide gas (Example 1); type: cell-based; conditions: virus exposed to 160 ppm nitric oxide gas for 1, 2 and 3 hours; vs air control; FIG. 1
Bovine Respiratory Virus = test: In vivo bovine feedlot study (Example 6); design: species or system calves
Protocol: A similar in vivo bovine study as in Example 5 was conducted with one hundred and fifty-eight (158) calves. The calves were shipped into a commercial feedlot, wherein some of the animals at the feedlot were infected with BRV. The […] calves were treated with either: (1) 4 minutes of approximately 160-260 ppm nitric oxide gas (30-60 breaths); or (2) conventional antibiotic, antiviral and immunization medications. 42 calves were treated with gNO, while 116 calves were treated with conventional antibiotics.

[3] = tested on: influenza A/Victoria/H3N2; test: Plaque assay in MDCK cells with gNO-exposed virus, several concentrations and dosing techniques (Example 2); type: cell-based
influenza A/H3N2 = test: Plaque assay in MDCK cells with gNO-exposed virus (Example 2); type: cell-based

## [N]=O [gNO, Nitric oxide]
[1]; 160 ppm gNO, prophylactic vs early detection group, FIG. 17
  clinical scores (industry standard signs): more effective in achieving low clinical scores for the prophylactic group than for the early detection group
[1]; 160 ppm gNO, prophylactic vs early detection group, FIG. 18
  IRT Temperature: more effective in achieving low IRT temperatures for the prophylactic group than for the early detection group
[1]; NO given at Early Detection (IRT) or at Clinical Detection
  calves' temperatures and clinical scores: rapidly resolved
[1]; all NO treated animals regardless of dosing/timing, induction herd: 13 out of 15 required antibiotic treatment
  infection after 6 months: none of the NO treated animals demonstrated infection
[1]; bovine, in vivo
  prevention of infection: effective in preventing infection
  safety of delivery: delivered safely without incident
[1]; prophylactic group, mean over 10 days, […], FIG. 16
  Mean Temperature (IRT): roughly 36.1 °C
[2]
  concentration of HPAI H7N3: about 330 PFU/mL
  infectivity of HPAI H7N3, continuous exposure compared with single treatment: comparatively better than the single treatment
[2]; after 3 hours
  infectivity of HPAI H7N3: under 50 PFU/mL
Influenza A virus
  influenza A virus in MDCK cell cultures (plaques): significantly less influenza A virus as compared to the air control
Bovine Respiratory Virus; after 15 days, 4 minutes of approximately 160-260 ppm nitric oxide gas (30-60 breaths), 4/42
  calves exhibiting clinical signs of infection (Bovine Respiratory Virus): 9.5%
Bovine Respiratory Virus; feedlot calves, 15 days
  effectiveness as antiviral agent reducing infectivity relative to conventional vaccines, antiviral agents and antibiotics: almost twice as effective
[3]; 40 ppm gNO continuously over 4 hours, FIG. 10
  infectivity of influenza A/Victoria/H3N2: no effect
[3]; 80 ppm gNO continuously for 4 hours, FIG. 7, 10
  infectivity of influenza A/Victoria/H3N2: not effective; also recorded: no effect
[3]; 160 ppm gNO and above (160 ppm and 800 ppm), continuously over 4 hours, vs controls and lower concentrations, FIG. 11
  infectivity of influenza A/Victoria/H3N2: effective in reducing the infectivity
[3]; 160 ppm gNO for 4 continuous hours, FIG. 8
  concentration of influenza A/Victoria/H3N2: effective in reducing the concentration of influenza A/Victoria/H3N2; also recorded: significant effect
[3]; 800 ppm gNO continuously over 4 hours, FIG. 11
  infectivity of influenza A/Victoria/H3N2: no real improved effect compared to 160 ppm
[3]; intermittent 160 ppm gNO, 30 minutes once every hour for 4 hours, FIG. 12
  infectivity of influenza A/Victoria/H3N2: more effective than the single 30 minute exposure; also recorded: effective as an anti-infective agent against influenza A/Victoria/H3N2
[3]; single 30 minute exposure to 160 ppm gNO, tracked over 4 hours, FIG. 9, 12
  concentration of influenza A/Victoria/H3N2: effective in reducing concentration of influenza A/Victoria/H3N2; also recorded: as effective as three (3) thirty (30) minute doses of gNO
Influenza A/H3N2; 80 ppm gNO continuously for 4 hours, FIG. 4
  infectivity of influenza A/H3N2: not as effective as the 160 ppm concentration
Influenza A/H3N2; 160 ppm gNO for 1, 2 and 3 hours, vs room air control, FIG. 2
  concentration of influenza A/H3N2 (viruses capable of infecting a cell): significantly reduced the concentration of influenza A/H3N2
Influenza A/H3N2; single 30 minute exposure to 160 ppm gNO, plaque assay to 20 hours after exposure, FIG. 5
  concentration of influenza A/H3N2: decreases concentration of influenza A/H3N2 over 20 hours
